Experimental data as given in patent US9512075B2 (OKAYAMA UNIVERSITY, priority 2012, dated 2016).
≈ marks a conversion by molar mass, not a printed value. Where two headings read alike, the source gives them in different places.

Experiments:
Format in all cases: cell-based
[1] = test system: Staphylococcus aureus Smith strain; assay: MIC for Staphylococcus aureus Smith strain; conditions: read-out: MIC Straphyrococcus aureus Smith
[2] = test system: Staphylococcus aureus 209P strain; assay: MIC for Staphylococcus aureus 209P strain; conditions: for MIC: Staphylococcus aureus, read-out: MIC Straphyrococcus aureus 209P
[3] = test system: Staphylococcus aureus MRSA No. 17 (methicillin-resistant Staphylococcus aureus: MRSA); assay: MIC for Staphylococcus aureus MRSA No. 17; conditions: read-out: MIC Straphyrococcus aureus MRSA No. 17 (MRSA)
[4] = test system: Enterococcus faecalis 5038 strain; assay: MIC for Enterococcus faecalis 5038 strain; conditions: read-out: MIC Enterococcus faecalis 5038
[5] = test system: Enterococcus faecalis NCTC12201 strain (vancomycin-resistant Enterococcus: VRE); assay: MIC for Enterococcus faecalis NCTC12201 strain (VRE); conditions: read-out: MIC Enterococcus faecalis NCTC 12201 (VRE)
[6] = test system: Clostridium difficile JCM1296 strain; assay: microbe, parasite or virus in culture; conditions: for MIC: Clostridioides difficile, JCM1296, read-out: MIC Clostridium difficile JCM1296
[7] = test system: Clostridium perfringens PB6K strain; assay: microbe, parasite or virus in culture; conditions: CD medium, 37° C. overnight, 10% CO2-containing anaerobic conditions; for MIC Clostridium perfringens PB6K: PB6K strain; for MIC: Clostridium perfringens, PB6KSTRAIN, read-out: MIC Clostridium perfringens PB6K, PB6K strain
[8] = test system: Escherichia coli K-12 strain; assay: MIC for Escherichia coli K-12 strain; conditions: for MIC: Escherichia coli, K12STRAIN, read-out: MIC Escherichia coli K12
[9] = test system: Escherichia coli BE1121 strain; assay: MIC for Escherichia coli BE1121 strain; conditions: for MIC: Escherichia coli, BE1121STRAIN, read-out: MIC Escherichia coli BE1121
[10] = Smith strain, regular bouillon medium, 37° C. overnight, turbidity
[11] = 209P strain, regular bouillon medium, 37° C. overnight, turbidity
[12] = MRSA No. 17, regular bouillon medium, 37° C. overnight, turbidity
[13] = 5038 strain, Heart Infusion Broth medium, 37° C. overnight, turbidity
[14] = NCTC12201 strain (VRE), Heart Infusion Broth medium, 37° C. overnight, turbidity
[15] = K-12 strain, regular bouillon medium, 37° C. overnight, turbidity
[16] = BE1121 strain, regular bouillon medium, 37° C. overnight, turbidity

| SMILES | MIC [1, 10] | MIC [2, 11] | MIC [3, 12] | MIC [4, 13] | MIC [5, 14] | MIC [8, 15] | MIC [9, 16] | MIC [6] | MIC [7] | MIC [1] | MIC ([4]; 5038STRAIN) | MIC [5] | other results |
| --- | --- | --- | --- | --- | --- | --- | --- | --- | --- | --- | --- | --- | --- |
| CCCCCCCCCCOCC(O)=C1C(=O)N(C(=O)OC(C)(C)C)c2cc(Cl)ccc21 [A012, N-Boc-3-decyloxyacetyl-6-chloro-2-oxyindole] | 256 µg/mL (≈ 549 µM) | 256 µg/mL (≈ 549 µM) | 256 µg/mL (≈ 549 µM) | 256 µg/mL (≈ 549 µM) | 256 µg/mL (≈ 549 µM) | 256 µg/mL (≈ 549 µM) | 256 µg/mL (≈ 549 µM) |  |  |  |  |  | MIC Clostridium difficile JCM1296 [6]: 32 µg/mL (≈ 68.7 µM); MIC Clostridium perfringens PB6K [7]: 32 µg/mL (≈ 68.7 µM) |
| CCCCCCCCCCOCC(O)=C1C(=O)N(C(C)=O)c2ccccc21 [A013, N-acetyl-3-decyloxyacetyl-2-oxyindole] | 256 µg/mL (≈ 685 µM) | 256 µg/mL (≈ 685 µM) | 256 µg/mL (≈ 685 µM) | 64 µg/mL (≈ 171 µM) | 32 µg/mL (≈ 85.7 µM) | 256 µg/mL (≈ 685 µM) | 256 µg/mL (≈ 685 µM) | 0.25 µg/mL (≈ 0.669 µM) | 0.5 µg/mL (≈ 1.34 µM) |  |  |  |  |
| CCCCC1CCC(C(O)=C2C(=O)N(C(=O)c3ccccc3)c3ccccc32)CC1 (centres unmarked) [A014, N-benzoyl-3-(4-butylcyclohexylcarbonyl)-2-oxyindole] | 1 µg/mL (≈ 2.48 µM) | 2 µg/mL (≈ 4.96 µM) | 4 µg/mL (≈ 9.91 µM) | 1 µg/mL (≈ 2.48 µM) | 0.5 µg/mL (≈ 1.24 µM) | 128 µg/mL (≈ 317 µM) | 128 µg/mL (≈ 317 µM) | 4 µg/mL (≈ 9.91 µM) | 8 µg/mL (≈ 19.8 µM) |  |  |  |  |
| CCCCNC(=O)N1C(=O)C(=C(O)C2CCC(CCCC)CC2)c2ccccc21 (centres unmarked) [A015, N-(butylaminocarbonyl)-3-(4-butylcyclohexylcarbonyl)-2-oxyindole] | 256 µg/mL (≈ 642 µM) | 256 µg/mL (≈ 642 µM) | 256 µg/mL (≈ 642 µM) | 8 µg/mL (≈ 20.1 µM) | 8 µg/mL (≈ 20.1 µM) | 256 µg/mL (≈ 642 µM) | 256 µg/mL (≈ 642 µM) | 4 µg/mL (≈ 10 µM) | 8 µg/mL (≈ 20.1 µM) |  |  |  |  |
| CCCCC1CCC(C(O)=C2C(=O)N(C(=O)Nc3ccccc3)c3ccccc32)CC1 (centres unmarked) [A016, N-(phenylaminocarbonyl)-3-(4-butylcyclohexylcarbonyl)-2-oxyindole] | 4 µg/mL (≈ 9.56 µM) | 128 µg/mL (≈ 306 µM) | 256 µg/mL (≈ 612 µM) | 1 µg/mL (≈ 2.39 µM) | 0.5 µg/mL (≈ 1.19 µM) | 256 µg/mL (≈ 612 µM) | 256 µg/mL (≈ 612 µM) | 0.25 µg/mL (≈ 0.597 µM) | 4 µg/mL (≈ 9.56 µM) |  |  |  |  |
| CCCCCCCCCCOCC(O)=C1C(=O)N(C(C)=O)c2cc(Cl)ccc21 [A017, N-acetyl-3-decyloxyacetyl-6-chloro-2-oxyindole] |  | 128 µg/mL (≈ 314 µM) | 16 µg/mL (≈ 39.2 µM) |  |  | 128 µg/mL (≈ 314 µM) | 128 µg/mL (≈ 314 µM) | < 0.125 µg/mL | < 0.125 µg/mL | < 0.125 µg/mL | < 0.125 µg/mL | < 0.125 µg/mL |  |
| CCCCCCCCCCOC(C)C(O)=C1C(=O)N(C(C)=O)c2ccccc21 (centres unmarked) [A018, N-acetyl-3-(2-decyloxypropionyl)-2-oxyindole] | 0.5 µg/mL (≈ 1.29 µM) |  | 8 µg/mL (≈ 20.6 µM) | 0.5 µg/mL (≈ 1.29 µM) | 0.5 µg/mL (≈ 1.29 µM) |  |  | 256 µg/mL (≈ 661 µM) | 256 µg/mL (≈ 661 µM) |  |  |  | MIC ([2]; 209P): 64 µg/mL (≈ 165 µM); MIC [8]: 256 µg/mL (≈ 661 µM); MIC [9]: < 0.125 µg/mL |
| CCCCCCCCCCOCC(O)=C1C(=O)N(C(=O)Nc2ccccc2)c2ccccc21 [A019, N-(phenylaminocarbonyl)-3-decyloxyacetyl-2-oxyindole] | 4 µg/mL (≈ 8.88 µM) | 256 µg/mL (≈ 568 µM) | 256 µg/mL (≈ 568 µM) | 1 µg/mL (≈ 2.22 µM) | 4 µg/mL (≈ 8.88 µM) | 256 µg/mL (≈ 568 µM) | 128 µg/mL (≈ 284 µM) | 0.5 µg/mL (≈ 1.11 µM) | 2 µg/mL (≈ 4.44 µM) |  |  |  |  |
| CCCCCCCCCCOCC(O)=C1C(=O)N(C(=O)OC(C)(C)C)c2cc(Cl)ccc21 [A056, N-Boc-6-chloro-3-decyloxyacetyl-2-oxyindole] |  |  |  |  |  |  |  |  |  |  |  |  | MIC Straphyrococcus aureus 209P [2, 11]: 256 µg/mL (≈ 549 µM); MIC Clostridium difficile JCM1296 [6]: 4 µg/mL (≈ 8.58 µM); MIC Clostridium perfringens PB6K [7]: 0.5 µg/mL (≈ 1.07 µM); MIC Escherichia coli K12 [8, 15]: 256 µg/mL (≈ 549 µM); MIC Escherichia coli BE1121 [9, 16]: 256 µg/mL (≈ 549 µM) |
| CCCCCCCCCC(=O)N1C(=O)C(=C(O)c2ccc(F)cc2)c2ccccc21 [A061, N-decanoyl-3-(4-fluorobenzoyl)-2-oxyindole] |  |  |  |  |  |  |  |  | 2 µg/mL (≈ 4.88 µM) | 2 µg/mL (≈ 4.88 µM) | 4 µg/mL (≈ 9.77 µM) | 4 µg/mL (≈ 9.77 µM) | MIC ([2]; 209P): 128 µg/mL (≈ 313 µM); MIC ([3]; MRSA): 64 µg/mL (≈ 156 µM); MIC [8]: 128 µg/mL (≈ 313 µM); MIC [9]: 128 µg/mL (≈ 313 µM) |
| CCCCCCCCCC(=O)c1c(O)c2cc(Cl)ccc2oc1=O [B003, 6-chloro-3-decanoyl-4-hydroxycoumarin] |  | 2 µg/mL (≈ 5.7 µM) |  |  |  | 256 µg/mL (≈ 730 µM) | 256 µg/mL (≈ 730 µM) |  | 0.25 µg/mL (≈ 0.713 µM) | 0.5 µg/mL (≈ 1.43 µM) | 0.5 µg/mL (≈ 1.43 µM) | 0.25 µg/mL (≈ 0.713 µM) | MIC ([3]; MRSA): 2 µg/mL (≈ 5.7 µM) |
| CCCCCCCCCC(=O)c1c(O)c2cc(F)ccc2oc1=O [B004, 3-decanoyl-6-fluoro-4-hydroxycoumarin] |  | 1 µg/mL (≈ 2.99 µM) |  |  |  | 256 µg/mL (≈ 766 µM) | 2 µg/mL (≈ 5.98 µM) |  | 0.25 µg/mL (≈ 0.748 µM) | 0.25 µg/mL (≈ 0.748 µM) | 0.5 µg/mL (≈ 1.5 µM) | 0.25 µg/mL (≈ 0.748 µM) | MIC ([3]; MRSA): 1 µg/mL (≈ 2.99 µM) |
